Reference: patent US10285961B2, “Organic acids as agents to dissolve calcium minerals in pathological calcification and uses thereof” (University of Houston System, priority 2014, dated 2019)
Entries after “also recorded” stand apart in the source; their conditions may differ. One block for each compound: values may come before it.

Tests used:
[1] = In situ AFM of growth hillocks on the (010) face of COM crystals (step velocity)
Method: (§1) Atomic force microscopy (AFM, Bruker Multimode 4) was used to study the COM crystal surface topography at a nanometer length scale. Samples were mounted on a disk covered with a thin layer of thermally curable epoxy (MasterBond EP21AOLV). The epoxy was partially cured in an oven for ca. 20 min at 60° C. prior to transferring the crystals obtained from bulk crystallization. The crystals were immobilized on the epoxy with the or [010] direction oriented normal to the specimen surface by placing the sample in an oven at 60° C. for two to three hours to completely cure the epoxy. The cantilevers used in this study were silicon nitride probes with gold reflex coating and a spring constant of 0.15 N/m (Olympus, TR800PSA). AFM was also employed to observe the kinetics of crystal growth in supersaturated calcium oxalate solutions by monitoring the velocity of step advancement on the (010) surface and (100) surface of COM crystals in real time. The experiment was designed to assess the effects of a range of concentration of hydroxycitrate on step growth using a fluid cell (Bruker, MTFML) to produce an environment that mimics in situ crystallization. The fluid cell had two ports for inlet and outlet flow to maintain constant supersaturation during AFM measurements. A silicon O-ring was used to ensure no liquid leakage would occur while solutions were being continuously replenished. A dual syringe pump (CHEMYX, Fusion 200) was used to flow the solutions into the fluid cell.
Hydroxycitrate has four stereoisomers, […], (2S,3R), (2S,3S), and (2R,3R) (FIG. 1). In order to investigate the interaction between hydroxycitrate and COM crystal surface at a molecular level, atomic force microscopy was utilized. The growth of hillocks by screw dislocation on the (010) face of COM crystals were measured in real time in the absence and in the presence of 0.1 μg/mL HCA (FIGS. 2A-2F). Growth hillocks on (010) face are bounded by {021} and {12-1} faces. […] The temporal advancement of steps (i.e., step velocity) of the growth hillock in the absence and in the presence of a wide range of concentration of HCA was measured (FIGS. 3A-3B). […] These phenomena are conventional modes of crystal growth inhibition. […] This phenomenon confirms the role of HCA as a dissolving agent.

[2] = In situ AFM of growth hillocks on the (100) surface of COM crystals
Method: as §1, with “The experiment was designed to assess the effects of a range of concentration of hydroxycitrate on step growth using a fluid cell (Bruker, MTFML) to produce an environment that mimics in situ crystallization. The fluid cell had two ports for inlet and outlet flow to maintain constant supersaturation during AFM measurements. A silicon O-ring was used to ensure no liquid leakage would occur while solutions were being continuously replenished. A dual syringe pump (CHEMYX, Fusion 200) was used to flow the solutions into the fluid cell.” left out
The interaction between hydroxycitrate and the (100) surface of COM crystals was also observed using atomic force microscopy. The growth of hillocks by screw dislocation on the (100) surface of COM crystals were measured in real time in the absence and in the presence of 0.25 μg/mL HCA (FIGS. 4A-4F). […]

[3] = Exposure of fully grown COM crystals to HCA: optical microscopy and AFM surface roughness; settings: HCA (100 μg/mL) introduced at the end of crystallization period (3 days); optical micrographs
Method: Crystallization was carried out in a 20-mL glass vial by dissolving NaCl in deionized water then adding 0.7 mL of 10 mM CaCl2 stock solution which was prepared in advance. The sample vial was place in an oven set to 60° C. for one hour to ensure the crystallization was performed at 60° C. Subsequently 0.7 mL of […] Na2C2O4 stock solution was added to the solution dropwise while the solution was stirred at 400 rpm. To investigate the effect of hydroxycitrate […] COM crystallization, prepared hydroxycitrate stock solution was added to the solution dropwise at the end of three day crystallization period. A clean glass slide (ca. 1.3×1.3 cm^2) was placed at the bottom of the glass vial to readily collect the crystals prior to placing the vial in the oven. Final solution composition was set to be 0.7 mM CaCl2: 0.7 mM Na2C2O4: 150 mM NaCl and the amount of deionized water was adjusted to set the final volume to 10 mL. Crystallization was performed at 60° C. for three days without agitation. The glass slide was removed from the solution and dried at room temperature prior to analysis.
Morphology of COM crystals prepared in the absence and in the presence of OGMs were assessed and compared under optical microscope (Leica DM2500-M). Images were obtained in brightfield using reflectance. […]

[4] = set-up: species or system human; settings: in vivo
Method: In order for hydroxycitrate to have a direct effect on calcium oxalate stone formation, it must be excreted in the urine. As preliminary evidence of renal excretion in humans, over the counter hydroxycitrate supplements (trade name Super CitraMax) was administered to a normal healthy subject at a dose of 4.3 mmoles of hydroxycitrate two times a day (total daily dose of 8.6 mmoles) for three days. The standard dose recommended by the manufacturer is 12.9 mmoles per day. On the third day a 24 hour urine collection was performed. Hydroxycitrate excretion was measured using ion chromatography. […] Peak 1 is urine citrate, peak 2 is hydroxycitrate. Using a standard curve created using a high purity hydroxycitrate standard, hydroxycitrate excretion was calculated to be 1.28 mmoles per day. Thus, approximately 15% of the oral hydroxycitrate dose was excreted in the urine.

[5] = Upper limit of metastability of urine from patients with kidney stones; set-up: species or system human; settings: for inhibition: calcium oxalate molar product at the point of crystallization: 8 urine samples, 37° C. for 4 hours
Method: The crystal inhibition activity of hydroxycitrate in human urine was determined using measurement of upper limit of metastability. For this experiment, 8 urine samples from patients with kidney stones were used. The urine was either spiked with a known amount of an inhibitor or spiked with saline as control. Ten aliquots of each urine sample were added to the wells of a microtiter plate and increasing amounts of oxalate was added. The plates were incubated at 37° C. for 4 hours and then turbidity was measured using an enzyme-linked immunosorbent assay (ELISA) plate reader. The well with the lowest amount of oxalate in which increased turbidity is noted is considered the crystallization point. Multiplying the calcium concentration of the urine and the oxalate concentration (original oxalate plus the amount of oxalate added) at the point of crystallization provides a rough measure of saturation at the point of crystallization.
The upper limit of metastability assay was also used to compare the inhibitory activity of hydroxycitrate to that of other tricarboxyllic acids: citrate, isocitrate, and tricarballylate. […] Each of tricarboxyllic acids was added to urine samples from stone forming patients to provide a final concentration of 2 mM. The data are expressed as the increase of the calcium oxalate molar product at crystallization compared to the control urine sample without any inhibitor added.

[6] = Calcium ion selective electrode (ISE) measurement of COM crystallization kinetics; settings: synthetic versus extracted hydroxycitrate, slope of free calcium ion depletion relative to control
Method: A calcium ion selective electrode (ISE, ThermoScientific with Orion 9720BNWP Ionplus® electrode) was used to measure the effect of organic growth modifiers (OGMs) on the kinetics of COM crystallization which measures the concentration of free calcium ions in solution. Samples were prepared in the similar manner as COM bulk crystallization. Final solution composition was set to be 0.5 mM CaCl2: 0.5 mM Na2C2O4: 150 mM NaCl and the measurements were performed at room temperature. During ISE measurements, the stir rate was adjusted to 1200 rpm to minimize the induction time for nucleation. OGM efficacy was measured by calculating the temporal depletion of calcium ion concentration (ppm range). The data was normalized by subtracting the concentration of the initial time point from each time point. The rate of depletion was calculated by measuring the initial slope of the crystal growth curve. The efficacy of synthetic and extracted hydroxycitrate was assessed using the percent inhibition, which was calculated by comparing the reduced slopes for each OGM relative to that of the control (i.e., absence of OGM). Prior to ISE measurements, the electrode was calibrated using a standard calcium solution (0.1 M, Orion Ion Plus), which was diluted with deionized water to three concentrations: 10^−4, 10^−3 and 10^−2 M. The ionic strength of each solution was adjusted using a standard solution (ISA, Thermo Scientific), which was added in a 1:50 volume ratio of ISA-to-standard.
Additionally, the inhibitory efficacy of synthetic and extracted HCA was observed. An ion selective electrode measures the free calcium ion in the solution in the course of experiments. The efficacy of both HCA molecules was measured by calculating the temporal depletion of free calcium ion concentration in COM growth solutions. The data was normalized by subtracting the concentration of the initial time point from all time points. The rate of depletion was calculated by measuring the initial slope of the crystal growth curve. The efficacy of the synthetic and extracted HCA was assessed using the percent inhibition, which was calculated by comparing the slopes for each molecule relative to that of the control (i.e., in the absence of HCA).

[7] = 2 mM final concentration, comparison of tricarboxylic acids

fraction of the oral hydroxycitrate dose excreted in the urine [4]: approximately 15%
Compound: O=C(O)CC(O)(C(=O)O)C(O)C(=O)O (stereo not shown) [HCA, hydroxycitrate]
surface features of COM crystal ([1]; 0.1 μg/mL HCA): signs of dissolution; also recorded: dissolves the COM crystal surface | step velocity of growth hillocks ([1]; <021> and <12-1> directions, low concentration of HCA (<0.06 μg/mL)): decrease; also recorded: slightly decreases | step velocity of growth hillocks ([1]; high concentration of HCA (>0.15 μg/mL)): nearly zero; also recorded: ceases to zero | step velocity of growth hillocks ([1]; intermediate concentration (0.06 μg/mL<CHCA<0.15 μg/mL)): negative velocity; also recorded: negative values | surface features of COM crystal ([2]; 0.1 μg/mL HCA as printed): dissolves the COM crystal surface | surface features of COM crystal ([2]; 0.25 μg/mL HCA): etch pits start to form at step edges; also recorded: rapid formation of etch pits at the edge of steps | overall crystal morphology [3]: remained the same as that of the control; also recorded: maintained the same overall morphology | inhibition: calcium oxalate molar product at the point of crystallization ([5]; 1 mM final concentration): greater inhibition than the control urine | inhibition: calcium oxalate molar product at the point of crystallization ([5]; 2 mM final concentration): greater inhibition than the 1 mM hydroxycitrate | increase of the calcium oxalate molar product at crystallization compared to the control urine [5, 7]: higher levels of inhibition compared to the other inhibitors

Compound: O.O=C([O-])CC(O)(C(=O)[O-])C(O)C(=O)[O-].[K+].[K+].[K+] (stereo not shown) [synthetic HCA, potassium hydroxycitrate tribasic monohydrate]
efficacy (percent inhibition) on COM crystallization ([6]; listed as sHCA, monohydrate): comparable effect | efficacy (percent inhibition) on COM crystallization ([6]; monohydrate): comparable

Compound: O=C(O)CC(CC(=O)O)C(=O)O [tricarballylate, reference compound]
difference of inhibition versus hydroxycitrate [5, 7]: reached statistical significance

Compound: (−)-Hydroxycitric acid calcium salt [extracted HCA]
efficacy (percent inhibition) on COM crystallization ([6]; calcium salt): comparable | efficacy (percent inhibition) on COM crystallization ([6]; listed as cHCA, calcium salt): comparable effect
